# Where a SMILES comes first, the peptide text is derived from it.
# What was measured:
# SARS-CoV-2 [1] = details: 24 h, pH 7.4
# parainfluenza virus 3 = details: 24 h, pH 7.4
# [2] = tested on: endosomal acidification in MDCK cells; type: cell-based, canine
# SARS-CoV-2 [3] = type: binding
# rhinovirus [4] = type: binding
# [5] = tested on: virus–host endosomal acidification in H1N1-infected MDCK cells; type: cell-based, canine
# SARS-CoV-2 [6] = tested on: SARS-CoV-2
# rhinovirus [7] = tested on: rhinovirus
# H1N1 HA1 protein = H1N1 HA1 protein (Influenza A virus, UniProt C3W5S1)
# Chain of H1N1 HA1 protein (C3W5S1 18-344 limits assumed): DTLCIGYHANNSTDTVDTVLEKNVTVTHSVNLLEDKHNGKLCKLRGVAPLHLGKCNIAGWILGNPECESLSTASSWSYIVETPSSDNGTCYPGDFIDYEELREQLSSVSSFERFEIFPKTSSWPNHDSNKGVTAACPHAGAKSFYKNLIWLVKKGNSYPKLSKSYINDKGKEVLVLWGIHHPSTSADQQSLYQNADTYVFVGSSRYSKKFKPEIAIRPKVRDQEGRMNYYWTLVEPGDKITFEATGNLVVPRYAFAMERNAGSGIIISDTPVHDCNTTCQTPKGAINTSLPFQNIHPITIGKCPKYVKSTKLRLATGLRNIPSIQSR
# MERS-CoV S protein = MERS-CoV S protein (Middle East respiratory syndrome-related coronavirus, UniProt K9N5Q8)
# Chain of MERS-CoV S protein (K9N5Q8 18-1353 limits assumed): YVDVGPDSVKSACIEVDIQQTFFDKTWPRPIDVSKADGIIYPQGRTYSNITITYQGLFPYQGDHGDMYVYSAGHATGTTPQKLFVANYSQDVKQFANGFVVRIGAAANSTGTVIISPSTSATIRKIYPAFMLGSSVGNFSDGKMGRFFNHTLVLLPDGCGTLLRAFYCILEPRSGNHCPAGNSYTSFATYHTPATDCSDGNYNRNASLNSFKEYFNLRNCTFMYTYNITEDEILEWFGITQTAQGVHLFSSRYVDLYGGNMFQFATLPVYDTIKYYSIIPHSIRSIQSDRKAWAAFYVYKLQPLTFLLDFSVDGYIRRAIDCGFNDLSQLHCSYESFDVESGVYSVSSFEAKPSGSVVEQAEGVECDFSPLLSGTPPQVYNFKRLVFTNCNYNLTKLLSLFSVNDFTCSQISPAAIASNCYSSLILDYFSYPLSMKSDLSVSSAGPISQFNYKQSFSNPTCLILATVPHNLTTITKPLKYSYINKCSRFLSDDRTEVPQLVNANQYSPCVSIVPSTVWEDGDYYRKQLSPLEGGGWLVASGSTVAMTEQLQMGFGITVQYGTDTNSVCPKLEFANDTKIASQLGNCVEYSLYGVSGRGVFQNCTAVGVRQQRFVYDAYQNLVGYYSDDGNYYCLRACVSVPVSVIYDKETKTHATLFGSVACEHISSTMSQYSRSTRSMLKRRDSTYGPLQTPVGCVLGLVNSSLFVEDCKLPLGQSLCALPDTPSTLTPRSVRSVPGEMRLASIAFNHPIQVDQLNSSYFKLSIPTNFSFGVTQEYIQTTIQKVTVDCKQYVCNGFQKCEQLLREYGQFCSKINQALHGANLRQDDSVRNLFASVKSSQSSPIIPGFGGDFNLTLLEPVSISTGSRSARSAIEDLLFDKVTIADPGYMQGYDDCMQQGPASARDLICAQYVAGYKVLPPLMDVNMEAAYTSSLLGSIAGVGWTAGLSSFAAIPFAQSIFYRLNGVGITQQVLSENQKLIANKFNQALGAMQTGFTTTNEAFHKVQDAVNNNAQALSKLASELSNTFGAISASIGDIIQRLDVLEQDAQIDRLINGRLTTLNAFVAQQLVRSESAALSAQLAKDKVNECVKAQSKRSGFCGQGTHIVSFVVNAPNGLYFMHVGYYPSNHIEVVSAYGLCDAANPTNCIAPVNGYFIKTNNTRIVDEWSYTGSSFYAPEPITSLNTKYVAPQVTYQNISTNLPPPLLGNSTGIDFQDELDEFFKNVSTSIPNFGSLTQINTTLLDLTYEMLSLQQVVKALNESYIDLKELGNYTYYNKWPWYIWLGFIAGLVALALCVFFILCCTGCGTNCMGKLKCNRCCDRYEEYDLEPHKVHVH
# H1N1 virus [8] = tested on: H1N1 virus
# H1N1 virus [9] = tested on: H1N1 virus; remark: listed apart in the source
# H1N1 virus [10] = tested on: H1N1 virus; remark: listed apart in the source
# SARS-CoV-2 [11] = tested on: SARS-CoV-2; remark: listed apart in the source
# physchem = details: water
Compound,IC50 against SARS-CoV-2 (SARS-CoV-2 [1]) [µg/mL],IC50 against parainfluenza virus 3 (parainfluenza virus 3) [µg/mL],inhibition of endosomal acidification in live cells [2],binding to SARS-CoV-2 (SARS-CoV-2 [3]),binding to rhinovirus (rhinovirus [4]),inhibition of virus–host endosomal acidification in infected live cells [5],"inhibition of viral replication, SARS-CoV-2 (SARS-CoV-2 [6])","inhibition of viral replication, MERS-CoV (MERS-CoV)","inhibition of viral replication, SARS-CoV (SARS-CoV)","inhibition of viral replication, A(H7N9) virus (A(H7N9) virus) [fold]","inhibition of viral replication, rhinovirus (rhinovirus [7]) [fold]",binding to H1N1 HA1 protein (H1N1 HA1 protein),binding to MERS-CoV S protein (MERS-CoV S protein),antiviral activity when cells were pretreated before viral infection (H1N1 virus [8]),effect on viral attachment (H1N1 virus [9]),"viral replication after 10,000-fold dilution of virus-peptide mixture (H1N1 virus [10])",inhibition of viral replication when added after SARS-CoV-2 infection (SARS-CoV-2 [11]),solubility (physchem) [µg/mL]
"CC[C@H](C)[C@H](NC(=O)[C@H](C)NC(=O)CNC(=O)[C@@H](N)CC(N)=O)C(=O)N[C@@H](CS)C(=O)N[C@@H](Cc1c[nH]c2ccccc12)C(=O)NCC(=O)N1CCC[C@H]1C(=O)N[C@@H](CS)C(=O)N1CCC[C@H]1C(=O)N[C@H](C(=O)N[C@@H](C)C(=O)N[C@@H](Cc1ccccc1)C(=O)N[C@@H](CCCNC(=N)N)C(=O)N[C@@H](CCC(N)=O)C(=O)N[C@H](C(=O)NCC(=O)N[C@@H](CC(N)=O)C(=O)N[C@@H](CS)C(=O)NCC(=O)N[C@@H](Cc1c[nH]cn1)C(=O)N[C@@H](Cc1ccccc1)C(=O)N[C@@H](CCCCN)C(=O)N[C@H](C(=O)N[C@@H](CCCNC(=N)N)C(=O)N[C@@H](CS)C(=O)N[C@@H](CS)C(=O)N[C@@H](CCCCN)C(=O)N[C@H](C(=O)N[C@@H](CCCNC(=N)N)C(=O)O)[C@@H](C)CC)C(C)C)[C@@H](C)CC)[C@@H](C)O [P9, reference compound] (H-NGAICWGPCPTAFRQIGNCGHFKVRCCKIR-OH)",2.4,> 25.0,,,,,,,,,,,,,,,,
CC[C@H](C)[C@H](NC(=O)[C@H](C)NC(=O)CNC(=O)[C@@H](N)CC(N)=O)C(=O)N[C@@H](CS)C(=O)N[C@@H](Cc1c[nH]c2ccccc12)C(=O)NCC(=O)N1CCC[C@H]1C(=O)N[C@@H](CS)C(=O)N1CCC[C@H]1C(=O)N[C@H](C(=O)N[C@@H](C)C(=O)N[C@@H](Cc1ccccc1)C(=O)N[C@@H](CCCNC(=N)N)C(=O)N[C@@H](CCC(N)=O)C(=O)N[C@H](C(=O)NCC(=O)N[C@@H](CC(N)=O)C(=O)N[C@@H](CS)C(=O)NCC(=O)N[C@@H](CCCNC(=N)N)C(=O)N[C@@H](Cc1ccccc1)C(=O)N[C@@H](CCCNC(=N)N)C(=O)N[C@H](C(=O)N[C@@H](CCCNC(=N)N)C(=O)N[C@@H](CS)C(=O)N[C@@H](CS)C(=O)N[C@@H](CCCNC(=N)N)C(=O)N[C@H](C(=O)N[C@@H](CCCNC(=N)N)C(=O)O)[C@@H](C)CC)C(C)C)[C@@H](C)CC)[C@@H](C)O [P9R] (H-NGAICWGPCPTAFRQIGNCGRFRVRCCRIR-OH),0.9,> 25.0,could more significantly inhibit endosomal acidification in live cells than that of P9,could efficiently bind,could also bind,could efficiently inhibit,more than 100 fold,more than 100 fold,more than 100 fold,> 20,> 20,could also bind,could also bind,did not show antiviral activity,did not affect viral attachment,could significantly inhibit viral replication,could also significantly inhibit viral replication,> 5000
"CO/C1=C\C(C)=C\[C@@H](C)[C@@H](O)[C@@H](C)C/C(C)=C/C=C/[C@H](OC)[C@@H]([C@@H](C)[C@@H](O)[C@H](C)[C@@]2(O)C[C@@H](O)[C@H](C)[C@@H](C(C)C)O2)OC1=O [bafilomycin A1, reference compound]",,,,,,could efficiently inhibit,,,,,,,,,,,,

# Source: PMC7447754 (Nature Communications, 2020)
